Target: T1, serotonin reuptake ([3H]-5-HT uptake into rat cortical synaptosomes) (Rattus norvegicus, UniProt P31652)
T1 construct: Whole brains from male Wistar rats (125-225 g), excluding cerebellum, are homogenized; from tissue; host or cells: synaptosomal fraction of whole brain (excluding cerebellum) from male Wistar rats
Assay: [3H]-5-HT uptake into rat cortical synaptosomes
Format: biochemical
Conditions: result in words
Description: Measurements of [^3H]-5-HT Uptake into Rat Cortical Synaptosomes.
Whole brains from male Wistar rats (125-225 g), excluding cerebellum, are homogenized in 0.32 M sucrose supplemented with 1 mM nialamid with a glass/teflon homogenizer. The homogenate is centrifuged at 600×g for 10 min at 4° C. The pellet is discarded and the supernatant is centrifuged at 20.000×g for 55 min. The final pellet is homogenized (20 sec) in this assay buffer (0.5 mg original tissue/well). Test compounds (or buffer) and 10 nM [^3H]-5-HT are added to 96 well plates and shaken briefly. 10 Composition of assay buffer: 123 mM NaCl, 4.82 mM KCl, 0.973 mM CaCl2, 1.12 mM MgSO4, 12.66 mM Na2HPO4, 2.97 mM NaH2PO4, 0.162 mM EDTA, 10 mM glucose and 1 mM ascorbic acid. Buffer is oxygenated with 95% 02/5% C02 for 10 min at 37° C. and pH is adjusted 7.4. The incubation is started by adding tissue to a final assay volume of 0.2 mL. After 15 min incubation with radioligand at 37° C., samples are filtered 15 directly on Unifilter GF/C glass fiber filters (soaked for 1 hour in 0.1% polyethylenimine) under vacuum and immediately washed with 3×0.2 ml assay buffer. Non-specific uptake is determined using citalopram (10 μM final concentration). Citalopram is included as reference in all experiments as dose-response curve.

T1 sequence (P31652 whole entry): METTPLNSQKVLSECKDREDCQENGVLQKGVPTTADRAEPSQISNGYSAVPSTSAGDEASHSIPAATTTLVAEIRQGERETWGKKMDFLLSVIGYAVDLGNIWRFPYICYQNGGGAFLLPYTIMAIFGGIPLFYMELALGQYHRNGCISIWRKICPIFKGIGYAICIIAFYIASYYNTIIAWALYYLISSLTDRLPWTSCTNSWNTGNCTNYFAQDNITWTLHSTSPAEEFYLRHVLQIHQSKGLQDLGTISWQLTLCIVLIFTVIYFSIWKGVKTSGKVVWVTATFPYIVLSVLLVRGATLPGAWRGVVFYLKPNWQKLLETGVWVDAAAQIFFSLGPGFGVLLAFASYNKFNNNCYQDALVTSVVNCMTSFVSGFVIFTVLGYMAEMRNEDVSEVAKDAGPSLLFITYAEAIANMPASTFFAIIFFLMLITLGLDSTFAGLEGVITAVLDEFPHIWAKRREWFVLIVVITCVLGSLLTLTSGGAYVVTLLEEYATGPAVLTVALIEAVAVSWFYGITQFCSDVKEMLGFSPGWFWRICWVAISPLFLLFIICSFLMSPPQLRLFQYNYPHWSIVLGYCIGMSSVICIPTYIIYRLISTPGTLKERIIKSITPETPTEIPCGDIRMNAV

| Compound | serotonin reuptake inhibition |
| --- | --- |
| Cc1ccc(Oc2ccccc2C2=CCNCC2)c(C)c1 [1a, 4-[2-(2,4-Dimethylphenoxy)phenyl]-1,2,3,6-tetrahydropyridine] | did show serotonin reuptake inhibition |
| Clc1ccc(Oc2ccccc2C2=CCNCC2)cc1 [1b, 4-[2-(4-Chlorophenoxy)phenyl]-1,2,3,6-tetrahydropyridine] | did show serotonin reuptake inhibition |
| Cc1cc(F)ccc1Oc1ccccc1C1=CCNCC1 [1c, 4-[2-(4-Fluoro-2-methylphenoxy)phenyl]-1,2,3,6-tetrahydropyridine] | did show serotonin reuptake inhibition |
| Fc1ccc(Oc2ccccc2C2=CCNCC2)cc1 [1d, 4-[2-(4-Fluorophenoxy)phenyl]-1,2,3,6-tetrahydropyridine] | did show serotonin reuptake inhibition |
| Cc1ccc(Oc2ccccc2C2=CCNCC2)cc1 [1e, 4-[2-(4-Methylphenoxy)phenyl]-1,2,3,6-tetrahydropyridine] | did show serotonin reuptake inhibition |
| COc1ccc(Oc2ccccc2C2=CCNCC2)cc1 [1f, 4-[2-(4-Methoxyphenoxy)phenyl]-1,2,3,6-tetrahydropyridine] | did show serotonin reuptake inhibition |
| Cc1ccc(Oc2ccccc2C2CCNCC2)cc1C [3h, 4-[2-(3,4-Dimethyl-phenoxy)-phenyl]-piperidine] | did show serotonin reuptake inhibition |
| Cc1cc(Oc2ccccc2C2CCNCC2)c(C)c(C)c1C [3i, 4-[2-(2,3,4,5-Tetramethyl-phenoxy)-phenyl]-piperidine] | did show serotonin reuptake inhibition |
| COc1ccc(Oc2ccccc2C2CCNCC2)cc1OC [3m, 4-[2-(3,4-Dimethoxy-phenoxy)-phenyl]-piperidine] | did show serotonin reuptake inhibition |

Target: T2, norepinephrine uptake ([3H]-noradrenaline uptake into rat cortical synaptosomes) (Rattus norvegicus, UniProt Q9WTR4)
T2 construct: Fresh cortex from male Wistar rats (125-225 g) are homogenized in 0.4M sucrose; from tissue; host or cells: synaptosomal fraction of fresh cortex from male Wistar rats
T2 sequence (Q9WTR4 1-597): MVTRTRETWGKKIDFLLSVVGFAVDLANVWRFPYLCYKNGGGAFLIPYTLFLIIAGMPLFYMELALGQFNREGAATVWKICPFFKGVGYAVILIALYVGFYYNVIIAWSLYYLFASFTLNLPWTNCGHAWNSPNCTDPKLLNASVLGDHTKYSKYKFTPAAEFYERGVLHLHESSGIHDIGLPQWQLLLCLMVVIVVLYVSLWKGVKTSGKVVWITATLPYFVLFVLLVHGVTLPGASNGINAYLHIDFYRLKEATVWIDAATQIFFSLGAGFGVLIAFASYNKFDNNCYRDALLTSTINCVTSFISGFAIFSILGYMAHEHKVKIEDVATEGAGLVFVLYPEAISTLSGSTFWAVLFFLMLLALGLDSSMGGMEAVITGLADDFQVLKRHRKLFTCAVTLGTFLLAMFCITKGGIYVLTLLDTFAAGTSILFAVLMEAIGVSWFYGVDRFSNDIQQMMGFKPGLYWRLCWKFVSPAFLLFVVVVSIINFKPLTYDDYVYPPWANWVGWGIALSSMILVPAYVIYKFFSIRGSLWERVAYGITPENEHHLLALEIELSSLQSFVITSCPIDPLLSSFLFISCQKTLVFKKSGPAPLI
Assay: [3H]Noradrenaline uptake into rat cortical synaptosomes
Format: biochemical
Conditions: result in words
Description: Measurements of [^3 H]Noradrenaline Uptake into Rat Cortical Synaptosomes.
Fresh cortex from male Wistar rats (125-225 g) are homogenized in 0.4M sucrose with a glass/teflon homogenizer. The homogenate is centrifuged at 600×g for 10 min at 4° C. The pellet is discarded and the supernatant is centrifuged at 20.000×g for 55 min. The final pellet is homogenized (20 sec) in this assay buffer (6 mg original tissue/mL=[…]). Test compounds (or buffer) and 10 nM [^3H]-noradrenaline are added to deep 96 well plates and shaken briefly. Composition of assay buffer: 123 mM NaCl, 4.82 mM 1Cl, 0.973 mM CaCl2, 1.12 mM MgSO4, 12.66 MM Na2HPO4, 2.97 MM NaH2PO4, 0.162 mM EDTA, 10 mM glucose and 1 mM ascorbic acid. Buffer is oxygenated with 95% 02/5% C02 for 10 min at 37° C. and pH is adjusted 7.4. The incubation is started by adding tissue to a final assay volume of 1 ml. After 15 min incubation with radioligand at 37° C., samples are filtered directly on Unifilter GF/C glass fiber filters (soaked for 1 hour in 0.1% polyethylenimie) under vacuum and immediately washed with 3×1 mL assay buffer. Non-specific uptake is determined using talsupram ([…] final concentration). Duloxetine is included as reference in all experiments as dose-response curve.

| Compound | norepinephrine uptake inhibition |
| --- | --- |
| Cc1ccc(Oc2ccccc2C2=CCNCC2)c(C)c1 [1a, 4-[2-(2,4-Dimethylphenoxy)phenyl]-1,2,3,6-tetrahydropyridine] | did not show norepinephrine uptake inhibition |
| Clc1ccc(Oc2ccccc2C2=CCNCC2)cc1 [1b, 4-[2-(4-Chlorophenoxy)phenyl]-1,2,3,6-tetrahydropyridine] | did not show norepinephrine uptake inhibition |
| Cc1cc(F)ccc1Oc1ccccc1C1=CCNCC1 [1c, 4-[2-(4-Fluoro-2-methylphenoxy)phenyl]-1,2,3,6-tetrahydropyridine] | did not show norepinephrine uptake inhibition |
| Fc1ccc(Oc2ccccc2C2=CCNCC2)cc1 [1d, 4-[2-(4-Fluorophenoxy)phenyl]-1,2,3,6-tetrahydropyridine] | did not show norepinephrine uptake inhibition |
| Cc1ccc(Oc2ccccc2C2=CCNCC2)cc1 [1e, 4-[2-(4-Methylphenoxy)phenyl]-1,2,3,6-tetrahydropyridine] | did not show norepinephrine uptake inhibition |
| COc1ccc(Oc2ccccc2C2=CCNCC2)cc1 [1f, 4-[2-(4-Methoxyphenoxy)phenyl]-1,2,3,6-tetrahydropyridine] | did not show norepinephrine uptake inhibition |
| Cc1ccc(Oc2ccccc2C2CCNCC2)cc1C [3h, 4-[2-(3,4-Dimethyl-phenoxy)-phenyl]-piperidine] | did not show norepinephrine uptake inhibition |
| Cc1cc(Oc2ccccc2C2CCNCC2)c(C)c(C)c1C [3i, 4-[2-(2,3,4,5-Tetramethyl-phenoxy)-phenyl]-piperidine] | did not show norepinephrine uptake inhibition |
| COc1ccc(Oc2ccccc2C2CCNCC2)cc1OC [3m, 4-[2-(3,4-Dimethoxy-phenoxy)-phenyl]-piperidine] | did not show norepinephrine uptake inhibition |
